Numbers after ± are expanded uncertainties.
Conditions: Fluid (supercritical or subcritical phases), Buoyancy - hydrostatic balance with magnetic suspension - one sinker

CC [ethane]
Conditions	mass density [kg/m3]
298.15 K, 2000 kPa	29.226 ± 0.03
298.15 K, 5987 kPa	352.999 ± 0.36
298.15 K, 7909 kPa	371.593 ± 0.23
298.15 K, 10071 kPa	385.867 ± 0.24
298.15 K, 14959 kPa	407.911 ± 0.25
298.15 K, 20004 kPa	423.934 ± 0.26
298.15 K, 24927 kPa	436.235 ± 0.27
298.15 K, 29893 kPa	446.599 ± 0.27
298.15 K, 35020 kPa	455.82 ± 0.28
298.15 K, 39905 kPa	463.582 ± 0.28
298.15 K, 49977 kPa	477.362 ± 0.29
298.15 K, 75091 kPa	503.592 ± 0.31
298.15 K, 99827 kPa	523.125 ± 0.32
298.15 K, 119760 kPa	536.225 ± 0.33
298.15 K, 149807 kPa	552.995 ± 0.34
350 K, 1999 kPa	22.819 ± 0.023
350 K, 29974 kPa	384.889 ± 0.23
350 K, 49928 kPa	430.315 ± 0.26
350 K, 74959 kPa	464.696 ± 0.28
350 K, 100019 kPa	489.111 ± 0.3
350 K, 124863 kPa	508.192 ± 0.31
350 K, 149906 kPa	524.195 ± 0.32
350 K, 172157 kPa	536.528 ± 0.33
400 K, 805 kPa	7.452 ± 0.008
400 K, 7325 kPa	84.481 ± 0.052
400 K, 27286 kPa	311.921 ± 0.19
400 K, 48575 kPa	383.533 ± 0.23
400 K, 69346 kPa	421.214 ± 0.26
400 K, 92289 kPa	450.02 ± 0.28
400 K, 117459 kPa	473.901 ± 0.29
400 K, 139686 kPa	491.026 ± 0.3
400 K, 154657 kPa	501.119 ± 0.31
400 K, 166558 kPa	508.474 ± 0.31
400 K, 181565 kPa	517.111 ± 0.32
400 K, 196062 kPa	524.823 ± 0.32
450 K, 1998 kPa	16.685 ± 0.017
450 K, 5021 kPa	44.467 ± 0.045
450 K, 10001 kPa	96.599 ± 0.06
450 K, 20005 kPa	202.282 ± 0.12
450 K, 30018 kPa	272.417 ± 0.17
450 K, 49974 kPa	346.238 ± 0.21
450 K, 69967 kPa	388.105 ± 0.24
450 K, 79928 kPa	403.693 ± 0.25
450 K, 99962 kPa	429.113 ± 0.26
450 K, 119860 kPa	449.29 ± 0.27
450 K, 139478 kPa	465.963 ± 0.28

Reference: the NIST ThermoML archive (doi:10.1021/je900978x)
